Measured values taken from patent publication US6762205B1, “Phenyl sulfamate derivatives” (Teikoku Hormone Mfg. Co., Ltd., priority 1999, dated 2004).
Read-outs that look alike come from different tables or passages of the source.

Experiments:
steroid sulfatase [1] = molecular target: T1, steroid sulfatase (Homo sapiens, UniProt P08842); settings: qualitative statement on prior art compounds; cited from earlier work
T1 sequence (P08842 22-583): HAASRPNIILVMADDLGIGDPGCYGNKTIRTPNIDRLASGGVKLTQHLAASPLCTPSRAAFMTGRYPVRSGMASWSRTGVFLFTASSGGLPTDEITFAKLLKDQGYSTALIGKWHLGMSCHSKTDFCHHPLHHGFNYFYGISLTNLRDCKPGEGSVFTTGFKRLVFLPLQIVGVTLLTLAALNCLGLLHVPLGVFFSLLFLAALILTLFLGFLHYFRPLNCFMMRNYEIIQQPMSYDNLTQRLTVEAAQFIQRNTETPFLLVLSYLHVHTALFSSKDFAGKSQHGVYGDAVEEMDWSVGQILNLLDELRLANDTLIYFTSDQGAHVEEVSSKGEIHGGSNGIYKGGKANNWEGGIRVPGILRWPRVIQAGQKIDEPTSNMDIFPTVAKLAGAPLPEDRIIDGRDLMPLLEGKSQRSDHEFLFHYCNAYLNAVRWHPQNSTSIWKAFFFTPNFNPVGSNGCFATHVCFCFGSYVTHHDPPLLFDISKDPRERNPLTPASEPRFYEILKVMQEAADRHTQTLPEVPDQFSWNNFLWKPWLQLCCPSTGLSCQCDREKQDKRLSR

[2] = qualitative statement on prior art compounds; cited from earlier work
steroid sulfatase [3] = molecular target: T2, steroid sulfatase (Rattus norvegicus, UniProt P15589); assay: In vivo inhibitory effect on steroid sulfatase (rat liver and uterus homogenates after 5 days of dosing); settings: po, once a day for 5 days, female SD rats, 4 hours after final administration
T2 construct: the liver and the uterus were excised from each rat; from tissue; host or cells: rat liver and uterus homogenate (2,000 x g supernatant) after 5 days of dosing
T2 sequence (P15589 20-577): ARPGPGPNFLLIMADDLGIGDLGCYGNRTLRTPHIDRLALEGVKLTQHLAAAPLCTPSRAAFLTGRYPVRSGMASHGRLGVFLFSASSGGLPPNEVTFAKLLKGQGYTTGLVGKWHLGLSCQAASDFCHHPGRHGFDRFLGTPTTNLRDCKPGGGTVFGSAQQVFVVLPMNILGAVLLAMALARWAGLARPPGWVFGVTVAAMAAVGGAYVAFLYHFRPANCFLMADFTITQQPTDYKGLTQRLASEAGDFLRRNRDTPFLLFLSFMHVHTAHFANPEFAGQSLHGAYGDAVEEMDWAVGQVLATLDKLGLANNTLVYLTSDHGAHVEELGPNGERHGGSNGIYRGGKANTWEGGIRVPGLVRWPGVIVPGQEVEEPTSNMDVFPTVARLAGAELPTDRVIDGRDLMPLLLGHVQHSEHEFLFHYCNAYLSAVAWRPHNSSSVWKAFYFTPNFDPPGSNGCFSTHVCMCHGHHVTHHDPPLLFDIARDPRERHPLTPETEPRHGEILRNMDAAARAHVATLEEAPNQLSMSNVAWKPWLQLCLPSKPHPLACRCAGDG
Text: (2) Measurement of an In vivo Inhibitory Effect on Steroid Sulfatase
A test compound was suspended in a 0.5% polyoxyethylene (20) sorbitan monooleate solution (Tween 80) and administered, once a day, to a group of 5 female SD strain rats (weighing 168-194 g) for 5 days.
Four hours after the final administration, all rats were sacrificed by ether anesthesia and dissected. Thus, the liver and the uterus were excised from each rat, washed once with cold phosphate-buffered saline (PBS, pH 7.4), and preserved at −70° C. or below. Each of the liver and the uterus was finely minced with scissors, and suspended in PBS containing 250 mM sucrose (5 ml/g tissue). Under cooling with ice, each suspension was homogenized with an Ultra-Turrax homogenizer. The resulting homogenate was centrifuged (at 4° C.) at 2,000×g for 30 minutes to remove nuclei and cell debris, and the protein concentration in this supernatant was measured according to the method of Bradford [Anal. Biochem. 72, 248-254(1976)].
The homogenate in an amount corresponding to a protein concentration of 100-500 μg/ml was mixed with [6,7-^3H]estrone 3-sulfate (with a specific activity of 49 Ci/mmol; from New England Nuclear, Boston, Mass., USA) in an amount corresponding to a substrate concentration of 20 μM. This mixture was diluted with PBS to a total volume of 1 ml, and incubated at 37° C. for 30 minutes. After incubation (1 ml), the steroid sulfatase activity was determined in the same manner as described above for the in vitro measurement (1).

steroid sulfatase [4] = molecular target: T1, steroid sulfatase; assay: In vitro inhibitory effect on steroid sulfatase (intact MCF-7 cells, [3H]estrone 3-sulfate hydrolysis); assay type: cell-based; parameters: Six-well plates (9.4 cm^2/well) were inoculated with intact MCF-7 human breast cancer cells; endogenous in cells; host or cells: MCF-7 human breast cancer cells; settings: MCF7; 3 × 10^−9 M test compound; intact MCF-7 human breast cancer cells; 37° C., 20 hours; read-out: Inhibitory rate (3 × 10^−9 M. %)
Method: (1) Measurement of an In vitro Inhibitory Effect on Steroid Sulfatase
Six-well plates (9.4 cm^2/well) were inoculated with intact MCF-7 human breast cancer cells at a density of about 1×10^5 cells/well. Using Dulbecco's modified Eagle medium (DMEM) containing 10 mM HEPES, 5% fetal bovine serum, 0.011% sodium pyruvate and 0.37% sodium bicarbonate, the cells were grown to 80% confluency.
The plates were washed with Earle's balanced salt solution (EBSS from Life Technologies Inc., Grand Island, N.Y., USA). Then, serum-free DMEM (2 ml) containing 4 pmol (4.4×10^5 dpm) of [6,7-^3H]estrone 3-sulfate (with a specific activity of 49 Ci/mmol; from New England Nuclear, Boston, Mass., USA), together with a test compound, was placed on each plate and incubated at 37° C. for 20 hours. After incubation, the plate was cooled, and the medium (1 ml) was pipetted into a separating tube containing [4-^14C]estrone (6×10^3 dpm) (with a specific activity of 52.5 mCi/mmol; from New England Nuclear, Boston, Mass., USA). This mixture, together with toluene (4 ml), was vigorously shaken for 30 seconds. It was shown by experiment that more than 90% of [4-^14C]estrone was removed from the aqueous layer by this treatment. A portion (2 ml) of the organic phase was taken, and the ^3H and ^14C contents thereof were measured by scintillation spectrometry. Then, the amount of estrone 3-sulfate hydrolyzed was calculated from the total 3H count (corrected for the volumes of the medium used and the organic phase, and for the recovery of the [^14C]estrone added) and the specific activity of the substrate.

[5] = liver, read-out: Inhibitory rate (0.5 mg/kg, p.o., %) Liver
[6] = uterus, read-out: Inhibitory rate (0.5 mg/kg, p.o., %) Uterus

SMILES	inhibition at 0.5 mg/kg (steroid sulfatase [3]; [5]) [%]	inhibition at 0.5 mg/kg (steroid sulfatase [3]; [6]) [%]	inhibition at 0.003 µM (steroid sulfatase [4]) [%]	inhibitory effect on steroid sulfatase (steroid sulfatase [1])	estrogenic action [2]
Cc1cc(=O)oc2cc(OS(N)(=O)=O)ccc12 [COUMATE, 4-methylcoumarin 7-sulfamate]				weak	do not show an estrogenic action
CCCCCCCCCCCCCC(=O)NCCc1ccc(OS(N)(=O)=O)cc1 [DU-14, 4-(2-myristoylaminoethyl)phenyl sulfamate]				weak	do not show an estrogenic action
C[C@]12CC[C@@H]3c4ccc(OS(N)(=O)=O)cc4CC[C@H]3[C@@H]1CCC2=O [EMATE, estrone 3-sulfamate]				powerful inhibitory effect	powerful estrogenic action
NS(=O)(=O)Oc1ccc(-c2ccccc2[N+](=O)[O-])cc1 [Example 1, 2′-nitrobiphenyl-4-yl sulfamate]	91.2	94.9			
N#Cc1ccccc1-c1ccc(OS(N)(=O)=O)cc1 [Example 3, 2′-cyanobiphenyl-4-yl sulfamate]	95.4	93.8	76		
NS(=O)(=O)Oc1ccc(-c2ccc([N+](=O)[O-])cc2)cc1 [Example 16, 4′-nitrobiphenyl-4-yl sulfamate]	97	100			
NS(=O)(=O)Oc1ccc(-c2ccc([N+](=O)[O-])cc2[N+](=O)[O-])cc1 [Example 23, 2′,4′-dinitrobiphenyl-4-yl sulfamate]			67		

Second part, led by results:

inhibition at 0.5 mg/kg (steroid sulfatase [3]; [5]) [%]	inhibition at 0.5 mg/kg (steroid sulfatase [3]; [6]) [%]	inhibition at 0.003 µM (steroid sulfatase [4]) [%]	SMILES	inhibitory effect on steroid sulfatase (steroid sulfatase [1])	estrogenic action [2]
97.2	97.6		NS(=O)(=O)Oc1ccc(-c2ccc(OS(N)(=O)=O)cc2)cc1 [Example 21, biphenyl-4,4′-diyl disulfamate]		
99.5	100	87	N#Cc1cc([N+](=O)[O-])ccc1-c1ccc(OS(N)(=O)=O)cc1 [Example 25, 2′-cyano-4′-nitrobiphenyl-4-yl sulfamate]		
		94	N#Cc1ccc(-c2ccc(OS(N)(=O)=O)cc2)c(C#N)c1 [Example 27, 2′,4′-dicyanobiphenyl-4-yl sulfamate]		
85.3	79		N#Cc1ccc(N(Cc2ccc(OS(N)(=O)=O)cc2)n2cnnc2)cc1 [Example 38, 4-[N-(4-cyano-phenyl)-N-(1,2,4-triazol-4-yl)aminomethyl]phenyl sulfamate]		
